Results from ChEMBL document CHEMBL4229379, “Synthesis and structure-activity relationship of novel bisindole amidines active against MDR Gram-positive and Gram-negative bacteria” (Eur J Med Chem, 2018).
≈ marks a conversion by molar mass, not a printed value.

Key:
[1] = system: Staphylococcus epidermidis; assay: Antibacterial activity against methicillin-sensitive Staphylococcus epidermidis ATCC 12228 after 18 hrs by CLSI broth microdilution method; assay type: functional; settings: ATCC 12228, 18 h
[2] = system: Staphylococcus epidermidis; assay: Antibacterial activity against methicillin-resistant Staphylococcus epidermidis 12-8 after 18 hrs by CLSI broth microdilution method; assay type: functional; settings: 12-8, 18 h
Staphylococcus aureus [3] = assay: Antibacterial activity against methicillin-sensitive Staphylococcus aureus ATCC 29213 after 18 hrs by CLSI broth microdilution method; assay type: functional; settings: ATCC 29213, 18 h
Staphylococcus aureus [4] = assay: Antibacterial activity against methicillin-resistant Staphylococcus aureus 12-33 after 18 hrs by CLSI broth microdilution method; assay type: functional; settings: 12-33, 18 h
Enterococcus faecalis [5] = assay: Antibacterial activity against vancomycin-sensitive Enterococcus faecalis ATCC 29212 after 18 hrs by CLSI broth microdilution method; assay type: functional; settings: ATCC 29212, 18 h
Enterococcus faecalis [6] = assay: Antibacterial activity against vancomycin-resistant Enterococcus faecalis 09-9 after 18 hrs by CLSI broth microdilution method; assay type: functional; settings: 09-9, 18 h
Enterococcus faecium [7] = assay: Antibacterial activity against vancomycin-resistant Enterococcus faecium ATCC 700221 after 18 hrs by CLSI broth microdilution method; assay type: functional; settings: ATCC 700221, 18 h
Enterococcus faecium [8] = assay: Antibacterial activity against vancomycin-sensitive Enterococcus faecium 12-3 after 18 hrs by CLSI broth microdilution method; assay type: functional; settings: 12-3, 18 h
Escherichia coli [9] = assay: Antibacterial activity against extended-spectrum beta-lactamase deficient Escherichia coli ATCC 25922 after 18 hrs by CLSI broth microdilution method; assay type: functional; settings: ATCC 25922, 18 h
Escherichia coli [10] = assay: Antibacterial activity against extended-spectrum beta-lactamase harboring Escherichia coli 12-15 after 18 hrs by CLSI broth microdilution method; assay type: functional; settings: 12-15, 18 h
Klebsiella pneumoniae [11] = assay: Antibacterial activity against extended-spectrum beta-lactamase harboring Klebsiella pneumoniae ATCC 700603 after 18 hrs by CLSI broth microdilution method; assay type: functional; settings: Klebsiella pneumoniae, 700603, 18 h
Klebsiella pneumoniae [12] = assay: Antibacterial activity against new delhi metallo-beta-lactamase-1 harboring Klebsiella pneumoniae ATCC BAA-2146 after 18 hrs by CLSI broth microdilution method; assay type: functional; settings: ATCC BAA-2146, 18 h
Klebsiella pneumoniae [13] = assay: Antibacterial activity against extended-spectrum beta-lactamase harboring Klebsiella pneumoniae 12-8 after 18 hrs by CLSI broth microdilution method; assay type: functional; settings: 12-8, 18 h
Pseudomonas aeruginosa [14] = assay: Antibacterial activity against Pseudomonas aeruginosa ATCC 27853 after 18 hrs by CLSI broth microdilution method; assay type: functional; settings: ATCC 27853, 18 h
[15] = system: Acinetobacter calcoaceticus; assay: Antibacterial activity against Acinetobacter calcoaceticus ATCC 19606 after 18 hrs by CLSI broth microdilution method; assay type: functional; settings: ATCC 19606, 18 h
Enterobacter cloacae = assay: Antibacterial activity against Enterobacter cloacae ATCC 43560 after 18 hrs by CLSI broth microdilution method; assay type: functional; settings: ATCC 43560, 18 h
Proteus mirabilis = assay: Antibacterial activity against Proteus mirabilis 12-6 after 18 hrs by CLSI broth microdilution method; assay type: functional; settings: 12-6, 18 h
[16] = Cytotoxicity against HEK293T cells assessed as reduction in cell viability after 48 hrs by MTS assay; assay type: cell-based, HEK-293T; settings: human
[17] = system: Staphylococcus epidermidis; assay: Antibacterial activity against methicillin-sensitive Staphylococcus epidermidis 12-6 after 18 hrs by CLSI broth microdilution method; assay type: functional; settings: 12-6, 18 h
Staphylococcus aureus [18] = assay: Antibacterial activity against methicillin-resistant Staphylococcus aureus ATCC 33591 after 18 hrs by CLSI broth microdilution method; assay type: functional; settings: ATCC 33591, 18 h
Staphylococcus aureus [19] = assay: Antibacterial activity against methicillin-sensitive Staphylococcus aureus 15 after 18 hrs by CLSI broth microdilution method; assay type: functional; settings: Staphylococcus aureus, 15, 18 h
Staphylococcus aureus [20] = assay: Antibacterial activity against methicillin-sensitive Staphylococcus aureus 12-28 after 18 hrs by CLSI broth microdilution method; assay type: functional; settings: 12-28, 18 h
Enterococcus faecalis [21] = assay: Antibacterial activity against vancomycin-resistant Enterococcus faecalis ATCC 51299 after 18 hrs by CLSI broth microdilution method; assay type: functional; settings: ATCC 51299, 18 h
Enterococcus faecalis [22] = assay: Antibacterial activity against vancomycin-sensitive Enterococcus faecalis 12-5 after 18 hrs by CLSI broth microdilution method; assay type: functional; settings: 12-5, 18 h
Enterococcus faecium [23] = assay: Antibacterial activity against vancomycin-resistant Enterococcus faecium 12-1 after 18 hrs by CLSI broth microdilution method; assay type: functional; settings: 12-1, 18 h
Escherichia coli [24] = assay: Antibacterial activity against extended-spectrum beta-lactamase deficient Escherichia coli 1515 after 18 hrs by CLSI broth microdilution method; assay type: functional; settings: Escherichia coli, 1515, 18 h
Escherichia coli [25] = assay: Antibacterial activity against extended-spectrum beta-lactamase deficient Escherichia coli 12-14 after 18 hrs by CLSI broth microdilution method; assay type: functional; settings: 12-14, 18 h
Klebsiella pneumoniae [26] = assay: Antibacterial activity against extended-spectrum beta-lactamase deficient Klebsiella pneumoniae 7 after 18 hrs by CLSI broth microdilution method; assay type: functional; settings: Klebsiella pneumoniae, 7, 18 h
Klebsiella pneumoniae [27] = assay: Antibacterial activity against extended-spectrum beta-lactamase deficient Klebsiella pneumoniae 12-4 after 18 hrs by CLSI broth microdilution method; assay type: functional; settings: 12-4, 18 h
Pseudomonas aeruginosa [28] = assay: Antibacterial activity against Pseudomonas aeruginosa PAO1 after 18 hrs by CLSI broth microdilution method; assay type: functional; settings: PAO1, 18 h
Pseudomonas aeruginosa [29] = assay: Antibacterial activity against Pseudomonas aeruginosa 12-16 after 18 hrs by CLSI broth microdilution method; assay type: functional; settings: 12-16, 18 h
Klebsiella aerogenes = assay: Antibacterial activity against Enterobacter aerogenes ATCC 13048 after 18 hrs by CLSI broth microdilution method; assay type: functional; settings: ATCC 13048, 18 h
Serratia marcescens = assay: Antibacterial activity against Serratia marcescens ATCC 21074 after 18 hrs by CLSI broth microdilution method; assay type: functional; settings: ATCC 21074, 18 h
Providencia rettgeri = assay: Antibacterial activity against Providencia rettgeri ATCC 31052 after 18 hrs by CLSI broth microdilution method; assay type: functional; settings: ATCC 31052, 18 h
Proteus vulgaris = assay: Antibacterial activity against Proteus vulgaris ATCC 29905 after 18 hrs by CLSI broth microdilution method; assay type: functional; settings: ATCC 29905, 18 h
[30] = system: Stenotrophomonas maltophilia; assay: Antibacterial activity against Stenotrophomonas maltophilia ATCC 13636 after 18 hrs by CLSI broth microdilution method; assay type: functional; settings: ATCC 13636, 18 h
Citrobacter freundii = assay: Antibacterial activity against Citrobacter freundii ATCC 43864 after 18 hrs by CLSI broth microdilution method; assay type: functional; settings: ATCC 43864, 18 h

| SMILES | MIC [1] [µg/mL] | MIC [2] [µg/mL] | MIC (Staphylococcus aureus [3]) [µg/mL] | MIC (Staphylococcus aureus [4]) [µg/mL] | MIC (Enterococcus faecalis [5]) [µg/mL] | MIC (Enterococcus faecalis [6]) [µg/mL] | MIC (Enterococcus faecium [7]) [µg/mL] | MIC (Enterococcus faecium [8]) [µg/mL] | MIC (Escherichia coli [9]) [µg/mL] | MIC (Escherichia coli [10]) [µg/mL] | MIC (Klebsiella pneumoniae [11]) [µg/mL] | MIC (Klebsiella pneumoniae [12]) [µg/mL] | MIC (Klebsiella pneumoniae [13]) [µg/mL] | MIC (Pseudomonas aeruginosa [14]) [µg/mL] | MIC [15] [µg/mL] | MIC (Enterobacter cloacae) [µg/mL] | MIC (Proteus mirabilis) [µg/mL] | CC50 at 48 h [16] [µg/mL] | MIC [17] [µg/mL] | MIC (Staphylococcus aureus [18]) [µg/mL] | other results |
| --- | --- | --- | --- | --- | --- | --- | --- | --- | --- | --- | --- | --- | --- | --- | --- | --- | --- | --- | --- | --- | --- |
| CCNC(=N)c1ccc2cc(-c3ccc(-c4cc5ccc(C(=N)NCC)cc5[nH]4)cc3)[nH]c2c1 | 0.5 (≈ 1.11 µM) | 1 (≈ 2.23 µM) | 1 (≈ 2.23 µM) | 1 (≈ 2.23 µM) | 1 (≈ 2.23 µM) | 2 (≈ 4.46 µM) | 1 (≈ 2.23 µM) | 2 (≈ 4.46 µM) | 8 (≈ 17.8 µM) | 16 (≈ 35.7 µM) | 32 (≈ 71.3 µM) | 32 (≈ 71.3 µM) | 32 (≈ 71.3 µM) | 8 (≈ 17.8 µM) | 64 (≈ 143 µM) | 16 (≈ 35.7 µM) | > 64 | 4.1 (≈ 9.14 µM) | 1 (≈ 2.23 µM) | 1 (≈ 2.23 µM) | MIC (Staphylococcus aureus [19]): 1 µg/mL (≈ 2.23 µM); MIC (Staphylococcus aureus [20]): 1 µg/mL (≈ 2.23 µM); MIC (Enterococcus faecalis [21]): 2 µg/mL (≈ 4.46 µM); MIC (Enterococcus faecalis [22]): 2 µg/mL (≈ 4.46 µM); MIC (Enterococcus faecium [23]): 1 µg/mL (≈ 2.23 µM); MIC (Escherichia coli [24]): 32 µg/mL (≈ 71.3 µM); MIC (Escherichia coli [25]): 16 µg/mL (≈ 35.7 µM); MIC (Klebsiella pneumoniae [26]): 16 µg/mL (≈ 35.7 µM); MIC (Klebsiella pneumoniae [27]): 16 µg/mL (≈ 35.7 µM); MIC (Pseudomonas aeruginosa [28]): 32 µg/mL (≈ 71.3 µM); MIC (Pseudomonas aeruginosa [29]): 32 µg/mL (≈ 71.3 µM); MIC (Klebsiella aerogenes): 16 µg/mL (≈ 35.7 µM); MIC (Serratia marcescens): 32 µg/mL (≈ 71.3 µM); MIC (Providencia rettgeri): 32 µg/mL (≈ 71.3 µM); MIC (Proteus vulgaris): 64 µg/mL (≈ 143 µM); MIC [30]: 8 µg/mL (≈ 17.8 µM); MIC (Citrobacter freundii): 16 µg/mL (≈ 35.7 µM) |
| CN(C)C(=N)c1ccc2cc(-c3cnc(-c4cc5ccc(C(=N)N(C)C)cc5[nH]4)cn3)[nH]c2c1 | 0.5 (≈ 1.11 µM) | 1 (≈ 2.22 µM) | 1 (≈ 2.22 µM) | 4 (≈ 8.88 µM) | 4 (≈ 8.88 µM) | 4 (≈ 8.88 µM) | 4 (≈ 8.88 µM) | 4 (≈ 8.88 µM) | 4 (≈ 8.88 µM) | 16 (≈ 35.5 µM) | 64 (≈ 142 µM) | 16 (≈ 35.5 µM) | 16 (≈ 35.5 µM) | 128 (≈ 284 µM) | 32 (≈ 71 µM) | 8 (≈ 17.8 µM) | 64 (≈ 142 µM) | 13 (≈ 28.8 µM) | 4 (≈ 8.88 µM) | 1 (≈ 2.22 µM) | MIC (Staphylococcus aureus [19]): 1 µg/mL (≈ 2.22 µM); MIC (Staphylococcus aureus [20]): 1 µg/mL (≈ 2.22 µM); MIC (Enterococcus faecalis [21]): 8 µg/mL (≈ 17.8 µM); MIC (Enterococcus faecalis [22]): 8 µg/mL (≈ 17.8 µM); MIC (Enterococcus faecium [23]): 2 µg/mL (≈ 4.44 µM); MIC (Escherichia coli [24]): 4 µg/mL (≈ 8.88 µM); MIC (Escherichia coli [25]): 4 µg/mL (≈ 8.88 µM); MIC (Klebsiella pneumoniae [26]): 16 µg/mL (≈ 35.5 µM); MIC (Klebsiella pneumoniae [27]): 16 µg/mL (≈ 35.5 µM); MIC (Pseudomonas aeruginosa [28]): > 128 µg/mL; MIC (Pseudomonas aeruginosa [29]): > 128 µg/mL; MIC (Klebsiella aerogenes): 16 µg/mL (≈ 35.5 µM); MIC (Serratia marcescens): 128 µg/mL (≈ 284 µM); MIC (Providencia rettgeri): 16 µg/mL (≈ 35.5 µM); MIC (Proteus vulgaris): 16 µg/mL (≈ 35.5 µM); MIC [30]: 32 µg/mL (≈ 71 µM); MIC (Citrobacter freundii): 8 µg/mL (≈ 17.8 µM) |
| N=C(c1ccc2cc(-c3ccc(-c4cc5ccc(C(=N)N6CC=CCC6)cc5[nH]4)cc3)[nH]c2c1)N1CC=CCC1 | 1 (≈ 1.91 µM) | 2 (≈ 3.81 µM) | 2 (≈ 3.81 µM) | 2 (≈ 3.81 µM) | 4 (≈ 7.62 µM) | 4 (≈ 7.62 µM) | 4 (≈ 7.62 µM) | 4 (≈ 7.62 µM) | 8 (≈ 15.2 µM) | 8 (≈ 15.2 µM) | 32 (≈ 61 µM) | 8 (≈ 15.2 µM) | 16 (≈ 30.5 µM) | > 128 | 16 (≈ 30.5 µM) | 8 (≈ 15.2 µM) | 32 (≈ 61 µM) | 13.3 (≈ 25.4 µM) | 4 (≈ 7.62 µM) | 1 (≈ 1.91 µM) | MIC (Staphylococcus aureus [19]): 2 µg/mL (≈ 3.81 µM); MIC (Staphylococcus aureus [20]): 2 µg/mL (≈ 3.81 µM); MIC (Enterococcus faecalis [21]): 8 µg/mL (≈ 15.2 µM); MIC (Enterococcus faecalis [22]): 8 µg/mL (≈ 15.2 µM); MIC (Enterococcus faecium [23]): 4 µg/mL (≈ 7.62 µM); MIC (Escherichia coli [24]): 8 µg/mL (≈ 15.2 µM); MIC (Escherichia coli [25]): 8 µg/mL (≈ 15.2 µM); MIC (Klebsiella pneumoniae [26]): 16 µg/mL (≈ 30.5 µM); MIC (Klebsiella pneumoniae [27]): 16 µg/mL (≈ 30.5 µM); MIC (Pseudomonas aeruginosa [28]): > 128 µg/mL; MIC (Pseudomonas aeruginosa [29]): > 128 µg/mL; MIC (Klebsiella aerogenes): 8 µg/mL (≈ 15.2 µM); MIC (Serratia marcescens): 64 µg/mL (≈ 122 µM); MIC (Providencia rettgeri): 8 µg/mL (≈ 15.2 µM); MIC (Proteus vulgaris): 16 µg/mL (≈ 30.5 µM); MIC [30]: 16 µg/mL (≈ 30.5 µM); MIC (Citrobacter freundii): 8 µg/mL (≈ 15.2 µM) |
